# Measured values taken from publication PMC9516332 (Frontiers in Oncology, 2022).
# Read-outs that look alike come from different tables or passages of the source.
# System: 134 cancer cell lines
# Experiment: Cell viability assay (ATPlite, 72 hours), IC50 on cancer cell line panel
smiles,measurement,setting,value
CC(C)(C)c1nc(-c2cccc(NS(=O)(=O)c3c(F)cccc3F)c2F)c(-c2ccnc(N)n2)s1 [dabrafenib],IC50,"Homo sapiens, MOLT-4, read-out: IC50 in cell proliferation assay, MOLT-4 cell line",> 10000 nM
same,IC50,"Homo sapiens, MV4-11, read-out: IC50 in cell proliferation assay, MV4-11 cell line (FLT3 ITD)",8020 nM
same,IC50,"Homo sapiens, MeWo, read-out: IC50 in cell proliferation assay, MeWo cell line",1020 nM
same,IC50,"Homo sapiens, NCCIT, read-out: IC50 in cell proliferation assay, NCC-IT cell line",1160 nM
same,IC50,"Homo sapiens, NCI-H82, read-out: IC50 in cell proliferation assay, cell line NCI-H82",1120 nM
same,IC50,"Homo sapiens, NCI-H460, read-out: IC50 in cell proliferation assay, NCI-H460 cell line",1150 nM
same,IC50,"Homo sapiens, NCI-H661, read-out: IC50 in cell proliferation assay, NCI-H661 cell line",> 10000 nM
same,IC50,"Homo sapiens, NCI-H716, read-out: IC50 in cell proliferation assay, cell line NCI-H716 (FGFR2-COL14A1)",1170 nM
same,IC50,"Homo sapiens, NCI-H1650, read-out: IC50 in cell proliferation assay, NCI-H1650 cell line (EGFR exon19del)",> 10000 nM
same,IC50,"Homo sapiens, NCI-H1975, read-out: IC50 in cell proliferation assay, NCI-H1975 cell line (EGFR p.L858R + p.T790M)",1420 nM
same,IC50,"Homo sapiens, NCI-H2228, read-out: IC50 in cell proliferation assay, NCI-H2228 cell line (EML4-ALK)",2200 nM
same,IC50,"Homo sapiens, OVCAR-3, read-out: IC50 in cell proliferation assay, cell line OVCAR-3",1040 nM
same,IC50,"Homo sapiens, PFSK-1, read-out: IC50 in cell proliferation assay, cell line PFSK-1",> 10000 nM
same,IC50,"Homo sapiens, RL95-2, read-out: IC50 in cell proliferation assay, cell line RL95-2 (EGFR p.A289V)",2990 nM
same,IC50,"Homo sapiens, RPMI-7951, read-out: IC50 in cell proliferation assay, cell line RPMI-7951 (BRAF p.V600E)",43 nM
same,IC50,"Homo sapiens, RS4-11, read-out: IC50 in cell proliferation assay, cell line RS4;11",1210 nM
same,IC50,"Homo sapiens, Rec1, read-out: IC50 in cell proliferation assay, cell line REC-1",975 nM
same,IC50,"Homo sapiens, SHP77, read-out: IC50 in cell proliferation assay, cell line SHP-77",> 10000 nM
same,IC50,"Homo sapiens, SK-BR-3, read-out: IC50 in cell proliferation assay, cell line SK-BR-3 (ERBB2 amplification)",1570 nM
same,IC50,"Homo sapiens, SK-N-AS, read-out: IC50 in cell proliferation assay, cell line SK-N-AS",3020 nM
same,IC50,"Homo sapiens, SK-N-FI, read-out: IC50 in cell proliferation assay, cell line SK-N-FI",> 10000 nM
same,IC50,"Homo sapiens, SK-N-MC, read-out: IC50 in cell proliferation assay, cell line SK-N-MC",1780 nM
same,IC50,"Homo sapiens, SK-N-SH, read-out: IC50 in cell proliferation assay, cell line SK-N-SH (ALK p.F1174L)",2140 nM
same,IC50,"Homo sapiens, SNU-5, read-out: IC50 in cell proliferation assay, cell line SNU-5 (MET amplification)",> 10000 nM
same,IC50,"Homo sapiens, SNU-16, read-out: IC50 in cell proliferation assay, cell line SNU-16 (FGFR2 amplification)",> 10000 nM
same,IC50,"Homo sapiens, SNU-C2B, read-out: IC50 in cell proliferation assay, cell line SNU-C2B (EGFR p.R165Q)",> 10000 nM
same,IC50,"Homo sapiens, SU-DHL-1, read-out: IC50 in cell proliferation assay, cell line SU-DHL-1 (NPM1-ALK)",> 10000 nM
same,IC50,"Homo sapiens, SU-DHL-6, read-out: IC50 in cell proliferation assay, cell line SU-DHL-6",2610 nM
same,IC50,"Homo sapiens, SUP-T1, read-out: IC50 in cell proliferation assay, cell line SUP-T1",> 10000 nM
same,IC50,"Homo sapiens, SW48, read-out: IC50 in cell proliferation assay, cell line SW48 (EGFR p.G719S)",3010 nM
same,IC50,"Homo sapiens, SW480, read-out: IC50 in cell proliferation assay, cell line SW480",2990 nM
same,IC50,"Homo sapiens, SW626, read-out: IC50 in cell proliferation assay, cell line SW626",> 10000 nM
same,IC50,"Homo sapiens, SW780, read-out: IC50 in cell proliferation assay, cell line SW780 (FGFR3-BAIAP2L1)",> 10000 nM
same,IC50,"Homo sapiens, SW837, read-out: IC50 in cell proliferation assay, cell line SW837",> 10000 nM
same,IC50,"Homo sapiens, SW872, read-out: IC50 in cell proliferation assay, cell line SW872 (BRAF p.V600E)",25 nM
same,IC50,"Homo sapiens, SW900, read-out: IC50 in cell proliferation assay, cell line SW900",1120 nM
same,IC50,"Homo sapiens, SW948, read-out: IC50 in cell proliferation assay, cell line SW948",2720 nM
same,IC50,"Homo sapiens, SW982, read-out: IC50 in cell proliferation assay, cell line SW982 (BRAF p.V600E)",1160 nM
same,IC50,"Homo sapiens, SW-620, read-out: IC50 in cell proliferation assay, cell line SW620",> 10000 nM
same,IC50,"Homo sapiens, T98G, read-out: IC50 in cell proliferation assay, cell line T98G",> 10000 nM
same,IC50,"Homo sapiens, TCC-SUP, read-out: IC50 in cell proliferation assay, cell line TCCSUP",2080 nM
same,IC50,"Homo sapiens, THP-1, read-out: IC50 in cell proliferation assay, cell line THP-1",> 10000 nM
same,IC50,"Homo sapiens, U2OS, read-out: IC50 in cell proliferation assay, cell line U2OS",> 10000 nM
same,IC50,"Homo sapiens, U-87 MG, read-out: IC50 in cell proliferation assay, cell line U-87MG ATCC",3600 nM
same,IC50,"Homo sapiens, U-118-MG, read-out: IC50 in cell proliferation assay, cell line U-118MG",2210 nM
same,IC50,"Homo sapiens, UMUC3, read-out: IC50 in cell proliferation assay, cell line UM-UC-3",1950 nM
same,IC50,"Hs766T, read-out: IC50 in cell proliferation assay, Hs 766T cell line",> 10000 nM
same,IC50,"L-82, read-out: IC50 in cell proliferation assay, L-82 cell line (NPM1-ALK)",> 10000 nM
same,IC50,"Rh30, read-out: IC50 in cell proliferation assay, cell line Rh30",> 10000 nM
same,IC50,"read-out: IC50 in cell proliferation assay, 11-18 cell line (EGFR p.L858R)",> 10000 nM
same,IC50,"read-out: IC50 in cell proliferation assay, Hs 852.T cell line",1420 nM
same,IC50,"read-out: IC50 in cell proliferation assay, JAR cell line",1530 nM
same,IC50,"read-out: IC50 in cell proliferation assay, cell line 5637",562 nM
same,IC50,"read-out: IC50 in cell proliferation assay, cell line A-388",> 10000 nM
same,IC50,"read-out: IC50 in cell proliferation assay, cell line DB",1720 nM
same,IC50,"read-out: IC50 in cell proliferation assay, cell line DEL (NPM1-ALK)",> 10000 nM
same,IC50,"read-out: IC50 in cell proliferation assay, cell line ES-2 (BRAF p.V600E)",130 nM
same,IC50,"read-out: IC50 in cell proliferation assay, cell line PA-1",1710 nM
same,IC50,"read-out: IC50 in cell proliferation assay, cell line PC-3",> 10000 nM
same,IC50,"read-out: IC50 in cell proliferation assay, cell line RD",1790 nM
same,IC50,"read-out: IC50 in cell proliferation assay, cell line RKO (BRAF p.V600E)",11 nM
same,IC50,"read-out: IC50 in cell proliferation assay, cell line RL",> 10000 nM
same,IC50,"read-out: IC50 in cell proliferation assay, cell line RT-4 (FGFR3-TACC3)",> 10000 nM
same,IC50,"read-out: IC50 in cell proliferation assay, cell line SR (NPM1-ALK)",1760 nM
same,IC50,"read-out: IC50 in cell proliferation assay, cell line T24",1170 nM
same,IC50,"read-out: IC50 in cell proliferation assay, cell line TT (RET p.C634W)",> 10000 nM
same,IC50,"read-out: IC50 in cell proliferation assay, cell line VA-ES-BJ",2100 nM
